PubChem BioAssay (NCI)
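All cell lines were grown in 96-well plates and treated with compound for 48 hours. TGI: concentration producing complete growth inhibition.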

Columns and labels:
Assay in all cases: NCI anticancer screen, dose series, 48 h
[1] = tested on: CAKI-1 renal
[2] = tested on: CCRF-CEM leukemia
[3] = tested on: KM12 colon
[4] = tested on: MOLT-4 leukemia
[5] = tested on: NCI/ADR-RES ovarian
[6] = tested on: OVCAR-8 ovarian
[7] = tested on: RPMI-8226 leukemia
[8] = tested on: SNB-19 CNS
[9] = tested on: SR leukemia
[10] = tested on: T-47D breast
[11] = tested on: UACC-257 melanoma
[12] = tested on: UACC-62 melanoma

Structure (SMILES)	TGI [1] [µM]	TGI [2] [µM]	TGI [3] [µM]	TGI [4] [µM]	TGI [5] [µM]	TGI [6] [µM]	TGI [7] [µM]	TGI [8] [µM]	TGI [9] [µM]	TGI [10] [µM]	TGI [11] [µM]	TGI [12] [µM]
Cc1ccc(N2C(=O)C(=O)N(/N=C3\C(=O)Nc4ccccc43)C2=S)cc1	> 100	> 100	> 100	> 100	> 100	> 100	> 100	> 100	> 100	> 100	> 100	> 100
CC(C)(CN)SCc1ccccc1	> 100	> 100	> 100	> 100	> 100	> 100	> 100	> 100	> 100	> 100	> 100	> 100
Cc1cn2c(/C=C3/C(=O)Nc4ccccc43)c(C)nc2s1	> 100	8.91	29.7	15.2	> 100	> 100	21	> 100	47	38.5	> 100	> 100
COC1C(OC(N)=O)C(O)C(Oc2ccc3c(O)c(NC(=O)c4ccc(O)c(CC=C(C)C)c4)c(=O)oc3c2C)OC1(C)C (centres undefined)	> 100	> 100	> 100	> 100	> 100	> 100	> 100	> 100	> 100	> 100	> 100	> 100
Nc1nc(NCCOCP(=O)(O)O)c(N)c(=O)[nH]1	> 100	> 100	> 100	> 100	> 100	> 100	> 100	> 100	> 100	> 100	> 100	> 100
CC(=O)/C(=C(/Br)I)c1ccccc1	6.83	11.3	28.2	20.5	45	28.1	9.35	37.5	13.5	13.3	25.4	> 48.4
CCOC(=O)c1ccc(Nc2cnc3ccc(C(F)(F)F)cc3n2)cc1	30.7	36.6	25.8	24.5	30.8	26	71.1	84.7	52.6	46.7	56	33.5
